According to patent US10940188B2, “Compounds and methods for treatment and prevention of Flavivirus infection” (priority 2016, dated 2021):
Entries after “also recorded” stand apart in the source; their conditions may differ.

Key:
HEK293 cells = experiment: Toxicity IC50 (cell-killing activity) of the NS1 TR-FRET screen; assay type: cell-based, human; details: cell-killing activity
[1] = tested on: human forebrain-specific organoids infected by FSS13025; experiment: Immunostaining of ZIKV-infected forebrain-specific organoids for cleaved caspase-3 and ZIKVE; assay type: cell-based; details: FSS13025 infection, 10 days
From the text: FIGS. 1A-1, 1A-2, 1A-3, 1B-1, 1B-2, 1C-1, and 1C-2. Emricasan suppresses cell death of ZIKV-infected human astrocytes and hNPCs in 2D monolayer cultures and 3D brain organoids. Emricasan (FIG. 1A-1) inhibits caspase-3 activity and improves cell viability in human astrocytes infected with three different strains of ZIKV in a concentration dependent manner. Value represent mean±s.d. (n=3). The curves (FIGS. 1A-2 and 1A-3) represent best fit. (FIG. 1B) Sample images of immunostaining (FIG. 1B-1) of forebrain-specific hNPCs for ZIKV envelop protein (ZIKVE; green) and cleaved-caspase 3 (Cas3; red) and DAPI (gray) 72 hours after ZIKV FSS-13025 infection (MOI=0.04-0.08; Scale bar: 20 μm), and quantification (FIG. 1B-2). Values represent mean±s.e.m. (n=3; **P<0.01; Student's t-test). Sample images (FIG. 1C-1) of immunostaining of day 28 human forebrain-specific organoids for ZIKVE (green) and Cas3 (red) and DAPI (gray) 10 days after ZIKV FSS-13025 infection (Scale bar: 100 μm), and quantification (FIG. 1C-2). Values represent mean±s.e.m. (n=6; ***P<0.001; Student's t-test).
Forebrain-specific organoids were generated from the C2-1 human iPSC line as previously described. Briefly, human iPSC colonies were detached 7 days after passage with Collagenase Type IV, washed with fresh stem cell medium and cultured in a 15 ml conical tube. […]

activated caspases = details: in vitro; cited from earlier work
[2] = tested on: liver injury in chronic Hepatitis C patients; details: chronic HCV patients; cited from earlier work
[3] = tested on: liver injury and fibrosis; details: murine NASH model; cited from earlier work
[4] = tested on: hNPCs infected with ZIKV PRVABC59; experiment: hNPC proliferation after ZIKV infection (EdU); assay type: cell-based, human; details: PHA-690509 1 μM, Seliciclib 5 μM
Procedure: FIGS. 17A-17C. Analysis of potential toxicity of CDKis on human astrocyte viability and hNPC proliferation. Human iPSC-derived astrocytes (BJ line) were treated with each indicated compound (cpd) for 25 hours prior to cell viability analysis as measured in relative luciferase units for ATP production. Values represent mean+s.d. (n=3 cultures; ***P<0.001; **P<0.01; One-way ANOVA for comparison with the DMSO treatment). RLU: relative luminescence units. hNPCs were treated with saline, PHA-690509 (PHA, 1 μM) or Seliciclib (5 μM), 1 hour prior to ZIKV PRVABC59 infection (MOI=0.08). At 72 hours post infection, EdU (10 μM) was added to hNPCs and cells were cultured for additional 4 hours prior to fixation and staining for EdU and DAPI. Values represent mean+s.e.m. (n=3 cultures; ***P<0.001; One-way ANOVA for comparison with the mock treatment). Day 20 forebrain-specific brain organoids were treated with PHA-690509 (1 μM) or Seliciclib (5 μM) for 3 days and hNPC proliferation was evaluated by phospho-Histone 3 (PH3) expression within the ventricular zone. Values represent mean+s.e.m. (n=8 organoids; P>0.05; One-way ANOVA for comparison with the mock treatment).

## CC[C@H]1CN2CCc3cc(OC)c(OC)cc3[C@@H]2C[C@@H]1C[C@H]1NCCc2cc(OC)c(OC)cc21 [Emetine]
HEK293 cells
  Tox IC50: No

## C[C@H](NC(=O)C(=O)Nc1ccccc1C(C)(C)C)C(=O)N[C@@H](CC(=O)O)C(=O)COc1c(F)c(F)cc(F)c1F [Emricasan]
[1]
  number of cleaved caspase-3-expressing hNPCs, 3D organoid cultures: reduced the number of active (cleaved) caspase-3-expressing forebrain-specific hNPCs
Activated caspases
  activity against activated caspases: sub- to nano-molar activity
[2]
  liver injury and tolerability in clinical trials: reduced liver injury and was tolerated over 12 weeks; also recorded: well tolerated in human trials without significant adverse events
[3]
  liver injury and fibrosis: reduces liver injury and fibrosis

## CC(=O)Nc1ccc([C@H](C)C(=O)Nc2ncc(C(C)C)s2)cc1 [PHA-690509]
[4]
  rescue of ZIKV-induced reduction of hNPC proliferation: partially rescued ZIKV-induced reduction of hNPC proliferation
